Test results as given in PubChem BioAssay (NCI).
“And” between values parts separate entries of the source, which are not always exact repeats. Equal entries are not always repeated.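 Test compounds were applied to cells in 96-well plates for 48 hours at 5 doses. Here, GI50 denotes the concentration required for 50% inhibition of growth. TGI: concentration producing complete growth inhibition.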

What was measured:
Assay in all cases: growth of human tumour cells (NCI), 48 h
EKVX NSCLC = test system: EKVX NSCLC
HCT-15 colon = test system: HCT-15 colon
HS 578T breast = test system: HS 578T breast
KM12 colon = test system: KM12 colon
M14 melanoma = test system: M14 melanoma
MCF7 breast = test system: MCF7 breast
NCI-H522 lung = test system: NCI-H522 lung
OVCAR-4 ovarian = test system: OVCAR-4 ovarian
SF-295 CNS = test system: SF-295 CNS
SK-OV-3 ovarian = test system: SK-OV-3 ovarian

Row | SMILES | GI50 (EKVX NSCLC) | TGI (EKVX NSCLC) | GI50 (HCT-15 colon) | TGI (HCT-15 colon) | GI50 (HS 578T breast) | TGI (HS 578T breast) | GI50 (KM12 colon) | TGI (KM12 colon) | GI50 (M14 melanoma) | TGI (M14 melanoma) | GI50 (MCF7 breast) | TGI (MCF7 breast) | GI50 (NCI-H522 lung) | TGI (NCI-H522 lung) | GI50 (OVCAR-4 ovarian) | TGI (OVCAR-4 ovarian) | GI50 (SF-295 CNS) | TGI (SF-295 CNS) | GI50 (SK-OV-3 ovarian) | TGI (SK-OV-3 ovarian)
1 | Nc1ccc(-c2nc3ccc4[nH]ncc4c3c3c2CCCC3)cc1F | 215 nM | 3.92 µM | 0.691 µM | 8.05 µM | 1050 nM | 3.91 µM | 1.11 µM | 6.3 µM | 686 nM | 6.92 µM | 1090 nM | 8.92 µM | 989 nM | 6.93 µM | 1690 nM | 23.5 µM | 2850 nM | 11.1 µM | 0.367 µM | 2.77 µM
2 | COc1ccc(OC)c(-c2nc3sccn3c2/C=C2/C(=O)Nc3ccc(Cl)cc32)c1 | 36100 nM | > 100 µM | 23.1 µM | 58.9 µM | 15600 nM | 53.5 µM | 35.8 µM | > 100 µM | 23100 nM | 53.8 µM | 27200 nM | 85 µM | 21500 nM | 51.6 µM | 26800 nM | 73.9 µM | 19400 nM | 51.5 µM | 13.6 µM | 41.5 µM
3 | O=C1c2ccccc2C(=O)c2c1ccc(C(Br)Br)c2[N+](=O)[O-] | 1960 nM | 4.58 µM | 1.52 µM | 2.93 µM | 2280 nM | 6.75 µM | 1.85 µM | 3.81 µM | 1970 nM | 3.94 µM | 598 nM | 2.54 µM | 1840 nM | 3.46 µM | 1340 nM | 2.73 µM | 3700 nM | 15.7 µM | 14.1 µM | 27.1 µM
4 | CC(=O)Oc1ccc(OC(C)=O)c2ccccc12 | 10400 nM | 24.7 µM | 14.3 µM | 34.5 µM | 13200 nM | 67.1 µM | 10.9 µM | 23.4 µM | 16100 nM | 30.4 µM | 7980 nM | 27.6 µM | 2040 nM | 5.41 µM | 1710 nM | 3.1 µM | 20900 nM | > 100 µM | 14.1 µM | 27.1 µM
5 | C=C1CCC2C3(C)COC(c4ccc(NC(C)=O)cc4)OC3CCC2(C)C1C/C=C1/C(=O)OCC1O (stereo unspecified) | 2710 nM | > 100 µM | 9.58 µM | > 100 µM | > 100000 nM | > 100 µM | 5.07 µM | > 100 µM | > 100000 nM | > 100 µM | 4580 nM | > 100 µM | 4530 nM | > 100 µM | 6810 nM | > 100 µM | 1550 nM | 6.75 µM | > 100 µM | > 100 µM
6 | COc1ccccc1/C=C\c1cnnc2ccccc12 |  | > 10 µM |  | > 10 µM |  | > 10 µM |  | > 10 µM |  | > 10 µM |  | > 10 µM |  | > 10 µM |  | > 10 µM |  | > 10 µM |  | > 10 µM
7 | CN1/C(=C\C(I)C(I)C2=[N+](C)c3ccccc3C2(C)C)C(C)(C)c2ccccc21 (stereo unspecified) | 369 nM | 36.7 µM | 0.997 µM | > 37.6 µM | 992 nM | 39.2 µM | 0.33 µM | 11.8 µM | 367 nM | 13.2 µM | 485 nM | 19.2 µM | 257 nM | 10.2 µM | 250 nM | 22.5 µM | 192 nM | 2.48 µM | 0.247 µM | 1.6 µM
8 | C#CCN1C(=O)/C(=c2\sc3n(c2=O)C2C(NN=3)N(CC)C(=O)N2CC)c2ccccc21 (stereo unspecified) | 1800 nM | > 100 µM | 0.394 µM | > 100 µM | 368 nM | 32.8 µM | 0.46 µM | > 100 µM | 283 nM |  | 377 nM | > 100 µM | 447 nM | > 76 µM | > 27300 nM | > 100 µM | 529 nM | 8.83 µM | 3.11 µM | > 100 µM
9 | CN(C)CCCNc1nn2c(=O)c3ccccc3nc2c2ccccc12 | 14400 nM | 51.1 µM | 7.05 µM | 30.2 µM | 3670 nM | 19.9 µM | 11.2 µM | 27.2 µM | 11800 nM | 24.5 µM | 3430 nM | 15.6 µM | 2140 nM | 24 µM | 10400 nM | 22.4 µM | 3860 nM | 24.5 µM | 5.43 µM | 22.8 µM
10 | CC[C@@]1(O)C(=O)NCc2c1cc1n(c2=O)Cc2cc3ccccc3nc2-1 | > 47900 nM | > 100 µM | 25.8 µM | > 100 µM | > 100000 nM | > 100 µM | > 50.6 µM | > 100 µM | 1490 nM | 15.1 µM | 823 nM |  | > 22600 nM | > 100 µM | 35500 nM | > 100 µM | 575 nM | 13.2 µM | 8.68 µM | > 100 µM
11 | C/C1=C\[C@H](C)C[C@H](C)OC(=O)C[C@H](c2ccc(O)cc2)NC(=O)[C@@H](Cc2c(Br)[nH]c3ccccc23)N(C)C(=O)[C@H](C)NC(=O)[C@@H](C)C1 | 132 nM | 0.746 µM and 1.83 µM | 0.488 µM | 6.01 µM | 45.1 nM | 0.606 µM and 0.134 µM |  | 39.8 µM | 45.6 nM |  | 208 nM | > 100 µM | 34.4 nM | 0.908 µM and 1.13 µM | 96.9 nM | 0.95 µM and 3.11 µM | 34.9 nM | 0.699 µM and 0.18 µM | 0.0267 µM | 0.579 µM and 0.0749 µM
12 | C(=N\Nc1nnc2c(n1)[nH]c1ccccc12)/c1cccnc1 |  | > 100 µM |  | > 100 µM |  | > 100 µM |  | > 100 µM |  | 46.2 µM |  | > 100 µM |  | > 100 µM |  | > 100 µM |  | > 100 µM |  | > 100 µM
13 | O=C1c2ccccc2C(=O)c2c(NCCCNCCO)ccc(NCCCNCCO)c21 |  | 26.3 µM |  | 29.8 µM |  | 34.4 µM |  | 18.4 µM |  | 25.5 µM |  | 10.8 µM |  | 15.5 µM |  | 26.9 µM |  | 31.9 µM |  | 58.7 µM
